According to patent publication US5444085A, “Methods of inhibiting HIV and inhibiting the activation of HIV” (Warner-Lambert Company, priority 1994, dated 1995):

Columns and labels:
[1] = system: HIV-infected cells; conditions: Hamamoto et al. 1989; cited from earlier work
[2] = system: OM-10.1 cells (HIV-1 activation); conditions: poster Nov. 3-7 1991; cited from earlier work
[3] = system: OM-10.1 cells; assay: Return to latency of TNF-α pre-activated OM-10.1 cells, percent CD4-positive cells by flow cytometry (Example 2); type: cell-based
Experimental: Moreover, in Example 2 the experiment was extended through 96 hours after the removal of TNF-α.

[4] = system: OM-10.1 cells (HIV-1 activation); assay: Supernatant reverse transcriptase activity / HIV-1 activation in OM-10.1 cultures pretreated with test compound then TNF-α induced (Example 1); type: cell-based; conditions: for stimulation index (SI) value of the reverse transcriptase activity: TNF-α treated vs non-TNF-α medium culture
Excerpt: The cellular pathways involved in mediating the activating signal from the plasma membrane to the integrated virus, resulting in HIV-1 expression, are much less clear. Recently, the development of a reliable and simple system for evaluating compounds that could prevent activation of latent HIV was reported at the National […] (NCDDG)/AIDS by P. Feorino, S. T. Butera, T. M. Folks, and R. F. Schinazi, San Diego, Calif., Nov. 3-7, 1991. […] The expression of CD4+ on the cell surface and the activity of reverse transcriptase are used as markers for quantitating viral expression. Alternatively, other HIV markers, such as protease activity, which are known to those of skill in the art can be used. OM-10.1 cells remain CD4^+ until viral activation and respond to tumor necrosis factor induction, and therefore, these cultures are used to conveniently and rapidly examine pharmacologics for an ability to prevent CD4^+ down modulation (decrease in expression of CD4^+ on the cell surface) and HIV-1 expression.
Example 1 was performed as described by Butera ST, et al., J. Virol. 1991;65:4645-4653. Test compounds were first dissolved in 100% DMSO to the indicated stock concentrations below in Table I. The stock solution was then diluted in tissue culture starting at 1:100(10/-2) and proceeding on as indicated.
OM-10.1 cells were then pretreated for 4 hours with the test compounds prior to TNF-α induction. TNF-α was added at 20 U/ml and induced cells were examined at 24 hours for evidence of surface CD4 down-modulation, as an indication of viral activation. Cells were also harvested after 24 hours of TNF-α induction for drug toxicity, being labeled with ^3 H thymidine during the final 18 hours in culture. At […], cell-free culture supernatant was collected for reverse transcriptase determination, as a further verification of the extent of HIV-1 activation. CD4 surface staining for flow cytometry and reverse transcriptase analysis were performed as described.

For CCCCCCCCCCCCCC(=O)O[C@@H]1[C@@H](C)[C@@]2(O)[C@@H](C=C(CO)C[C@]3(O)C(=O)C(C)=C[C@@H]23)[C@@H]2C(C)(C)[C@]12OC(C)=O [12-O-tetradecanoyl-phorbol-13-acetate], the “CD4 down regulation and viral expression” value [1] is given as “mediates CD4 down regulation and viral expression in HIV-infected cells”.

In the case of CC(=O)N(O)CCCCCNC(=O)CCC(=O)N(O)CCCCCNC(=O)CCC(=O)N(O)CCCCCN [desferrioxamine], the “inhibition of the activation of HIV-1” value [2] is given as “modest inhibitors of the activation of HIV-1”.

For Cc1cn([C@H]2C[C@H](F)[C@@H](CO)O2)c(=O)[nH]c1=O [3'-fluoro-3'-deoxythymidine (FLT), 3'-fluoro-3'-deoxythymidine], the “inhibition of the activation of HIV-1” value [2] is given as “modest inhibitors of the activation of HIV-1”.

With COc1ccc2c(c1)c(OC(C)C)c(C(N)=O)[s+]2[O-] (stereo not drawn) [Test Compound B, 5-methoxy-3-(1-methylethoxy)benzothiophene-2-carboxamide-, 1-oxide] the “percent CD4-positive cells” value ([3]; 0.5 μM, 24 hours) was 5.3%, the “percent CD4-positive cells” value ([3]; 0.5 μM, 48 hours) was 20.6% and the “percent CD4-positive cells” value ([3]; 0.5 μM, 72 hours) was 47.9%. The “percent CD4-positive cells” value ([3]; 0.5 μM, 96 hours) was 75.1%, the “percent CD4-positive cells” value ([3]; 0.5 μM, T-0 (after 24 hours TNF-α, before compound)) was 4.0% and the “percent CD4-positive cells” value ([3]; 0.5 μM, T-24 (baseline, before TNF-α and compound)) was 89.0%. The “percent CD4-positive cells” value ([3]; 10 μM, 24 hours) was 33.5%, the “percent CD4-positive cells” value ([3]; 10 μM, 48 hours) was 96.5% and the “percent CD4-positive cells” value ([3]; 10 μM, 72 hours) was 97.6%. The “percent CD4-positive cells” value ([3]; 10 μM, 96 hours) was 98.7%, the “percent CD4-positive cells” value ([3]; 10 μM, T-0 (after 24 hours TNF-α, before compound)) was 4.0% and the “percent CD4-positive cells” value ([3]; 10 μM, T-24 (baseline, before TNF-α and compound)) was 89.0%. For the same molecule, the inhibition at 0.035 µM ([4]; Human immunodeficiency virus 1, dilution 1:10 6 (A 19.5 nM; B 35.0 nM), TNF-α 20 U/ml, read-out: percent inhibition of the reverse transcriptase activity) was 0%, the inhibition at 17.75 µM ([4]; Human immunodeficiency virus 1, dilution 1:2000 (A 10.0 μM; B 17.75 μM), TNF-α 20 U/ml, read-out: percent inhibition of the reverse transcriptase activity) was 72.9% and the inhibition at 8.88 µM ([4]; Human immunodeficiency virus 1, dilution 1:4000 (A 5.0 μM; B 8.88 μM), TNF-α 20 U/ml, read-out: percent inhibition of the reverse transcriptase activity) was 44%. It also gave an inhibition at 4.44 µM ([4]; Human immunodeficiency virus 1, dilution 1:8000 (A 2.5 μM; B 4.44 μM), TNF-α 20 U/ml, read-out: percent inhibition of the reverse transcriptase activity) of 26.4%, an inhibition at 2.22 µM ([4]; Human immunodeficiency virus 1, dilution 1:16,000 (A 1.25 μM; B 2.22 μM), TNF-α 20 U/ml, read-out: percent inhibition of the reverse transcriptase activity) of 18.2% and an inhibition at 1.11 µM ([4]; Human immunodeficiency virus 1, dilution 1:32,000 (A 0.62 μM; B 1.11 μM), TNF-α 20 U/ml, read-out: percent inhibition of the reverse transcriptase activity) of 19.6%. It also gave an inhibition at 0.55 µM ([4]; Human immunodeficiency virus 1, dilution 1:64,000 (A 0.31 μM; B 0.55 μM), TNF-α 20 U/ml, read-out: percent inhibition of the reverse transcriptase activity) of 0.68%, an inhibition at 0.28 µM ([4]; Human immunodeficiency virus 1, dilution 1:128,000 (A 0.16 μM; B 0.28 μM), TNF-α 20 U/ml, read-out: percent inhibition of the reverse transcriptase activity) of 3.67% and an inhibition at 0.14 µM ([4]; Human immunodeficiency virus 1, dilution 1:256,000 (A 78.0 nM; B 0.14 μM), TNF-α 20 U/ml, read-out: percent inhibition of the reverse transcriptase activity) of 11.5%. For the same molecule, the inhibition at 0.07 µM ([4]; Human immunodeficiency virus 1, dilution 1:512,000 (A 39.0 nM; B 70.0 nM), TNF-α 20 U/ml, read-out: percent inhibition of the reverse transcriptase activity) was 1.55%, the “anti-induction activity in the OM-10.1 cell system” value ([4]; TNF-α induced) was “appeared to have anti-induction activity” and the “inhibition of HIV-1 activation” value ([4]; concentrations between 10 and 1 μM) was “effective at substantially inhibiting HIV-1 activation”. The “mean reverse transcriptase cpm values” ([4]; dilution 1:10 6 (A 19.5 nM; B 35.0 nM), TNF-α 20 U/ml) was 30,025 cpm, the “stimulation index (SI) value of the reverse transcriptase activity” value (“stimulation index (SI) value” below) ([4]; dilution 1:10 6 (A 19.5 nM; B 35.0 nM)) was 8.28 and the “mean reverse transcriptase cpm values” ([4]; dilution 1:2000 (A 10.0 μM; B 17.75 μM), TNF-α 20 U/ml) was 7,725 cpm. For the same molecule, the “stimulation index (SI) value” value ([4]; dilution 1:2000 (A 10.0 μM; B 17.75 μM)) was 2.13, the “mean reverse transcriptase cpm values” ([4]; dilution 1:4000 (A 5.0 μM; B 8.88 μM), TNF-α 20 U/ml) was 15,984 cpm and the “stimulation index (SI) value” value ([4]; dilution 1:4000 (A 5.0 μM; B 8.88 μM)) was 4.41. The “mean reverse transcriptase cpm values” ([4]; dilution 1:8000 (A […]; B 4.44 μM), TNF-α 20 U/ml) was 21,009 cpm, the “stimulation index (SI) value” value ([4]; dilution 1:8000 (A […]; B 4.44 μM)) was 5.80 and the “mean reverse transcriptase cpm values” ([4]; dilution 1:16,000 (A 1.25 μM; B 2.22 μM), TNF-α 20 U/ml) was 23,336 cpm. The “stimulation index (SI) value” value ([4]; dilution 1:16,000 (A 1.25 μM; B 2.22 μM)) was 6.44, the “mean reverse transcriptase cpm values” ([4]; dilution 1:32,000 (A 0.62 μM; B 1.11 μM), TNF-α 20 U/ml) was 22,931 cpm and the “stimulation index (SI) value” value ([4]; dilution 1:32,000 (A 0.62 μM; B 1.11 μM)) was 6.33. The “mean reverse transcriptase cpm values” ([4]; dilution 1:64,000 (A 0.31 μM; B 0.55 μM), TNF-α 20 U/ml) was 28,334 cpm, the “stimulation index (SI) value” value ([4]; dilution 1:64,000 (A 0.31 μM; B 0.55 μM)) was 7.82 and the “mean reverse transcriptase cpm values” ([4]; dilution 1:128,000 (A 0.16 μM; B 0.28 μM), TNF-α 20 U/ml) was 27,480 cpm. The “stimulation index (SI) value” value ([4]; dilution 1:128,000 (A 0.16 μM; B 0.28 μM)) was 7.58, the “mean reverse transcriptase cpm values” ([4]; dilution 1:256,000 (A 78.0 nM; B 0.14 μM), TNF-α 20 U/ml) was 25,257 cpm and the “stimulation index (SI) value” value ([4]; dilution 1:256,000 (A 78.0 nM; B 0.14 μM)) was 6.97. The “mean reverse transcriptase cpm values” ([4]; dilution 1:512,000 (A 39.0 nM; B 70.0 nM), TNF-α 20 U/ml) was 28,085 cpm and the “stimulation index (SI) value” value ([4]; dilution 1:512,000 (A 39.0 nM; B 70.0 nM)) was 7.75.

B1: interferon Y: interferon Y (protein, UniProt P01579 24-161, looked up)
Interferon gamma: QDPYVKEAENLKKYFNAGHSDVADNGTLFLGILKNWKEESDRKIMQSQIVSFYFKLFKNFKDDQSIQKSVETIKEDMNVKFFNSNKKKRDDFEKLTNYSVTDLNVQRKAIHELIQVMAELSPAAKTGKRKRSQMLFRG
In the case of B1, the “inhibition of the activation of HIV-1” value [2] is listed as “modest inhibitors of the activation of HIV-1”.
